Results published in US10005771B2, “Bicyclic derivatives having β2 adrenergic agonist and M3 muscarinic antagonist activities” (Almirall, S.A., priority 2014, dated 2018).

Tests used:
[1] = target: T1, human muscarinic M3 receptors (Homo sapiens, UniProt P20309); test: Human muscarinic M3 receptors binding assay ([3H]-NMS, CHO-K1 membranes); conditions: membranes from CHO-K1 cells, [3H]-NMS radioligand, two hours incubation
T1 construct: purchased Perkin Elmer; host or cells: CHO-K1 cells
Protocol: Test 2: Human Muscarinic M3 Receptors Binding Assays
The study of binding to human muscarinic M3 receptors was performed using commercial membranes (Perkin Elmer) prepared from CHO-K1 cells.
Radioligand binding experiments were conducted in 96 polypropylene well plates in a total volume of 200 μl. All reagents were dissolved in assay binding buffer (PBS with calcium and magnesium, SIGMA), except compounds that were dissolved in DMSO 100%. Non-specific binding (NSB) was measured in the presence of 1 μM atropine. [3H]-NM, used as the radioligand was incubated with membranes that express human muscarinic M3 at concentration of 4.9 μg/well.
After an incubation period of two hours with gentle shaking, 150 μl of the reaction mix were transferred to 96 GF/C filter plates (Millipore), previously treated with wash buffer (Tris 50 mM; NaCl 100 mM; pH: 7.4), containing 0.05% PEI (Sigma) during one hour. Bound and free [3H]-NMS were separated by rapid vacuum filtration in a manifold from Millipore and washed four times with ice cold wash buffer. After drying 30 min, 30 μl of OPTIPHASE Supermix were added to each well and radioactivity quantified using a Microbeta microplate scintillation counter.
The affinity of each test compound to the receptor was determined by using ten different concentrations ran in duplicate. IC50s were calculated using Activity Base software from IDBS and the four parameters-log equation.

[2] = target: T2, human adrenergic β2 receptor (Homo sapiens, UniProt P07550); test: Human adrenergic β2 receptor binding assay (3H-CGP12177, Sf9 membranes); conditions: membranes from Sf9 cells, 0.6 nM 3H-CGP12177, 60 minutes at room temperature
T2 construct: purchased Perkin Elmer; host or cells: Sf9 cells
Protocol: Test 1: Human Adrenergic β1 and β2 Receptor Binding Assays
The study of binding to human adrenergic beta1 and beta2 receptors was performed using commercial membranes prepared from Sf9 cells where they are overexpressed (Perkin Elmer). The membrane suspensions (16 μg/well for beta1 and 5 μg/well for beta2) in assay buffer (75 mM Tris/HCl with 12.5 mM MgCl2 and 2 mM EDTA pH=7.4) were incubated with 0.14 or 0.6 nM of 3H-CGP12177 (Amersham) for beta 1 and beta 2 receptors respectively in a final volume of 250 μl, in GFC Multiscreen 96 well plates (Millipore) previously treated with assay buffer containing 0.3% PEI (Sigma). Non specific binding was measured in the presence of 1 μM propanolol. Incubation was maintained for 60 minutes at room temperature and with gentle shaking. The binding reactions were terminated by filtration and washing with 2.5 volumes of Tris/HCl 50 mM pH=7.4. The affinity of each test compound to the receptor was determined by using ten different concentrations ran in duplicate. IC50s were calculated using Activity Base software from IDBS and the four parameters-log equation.

T1 sequence (P20309 whole entry): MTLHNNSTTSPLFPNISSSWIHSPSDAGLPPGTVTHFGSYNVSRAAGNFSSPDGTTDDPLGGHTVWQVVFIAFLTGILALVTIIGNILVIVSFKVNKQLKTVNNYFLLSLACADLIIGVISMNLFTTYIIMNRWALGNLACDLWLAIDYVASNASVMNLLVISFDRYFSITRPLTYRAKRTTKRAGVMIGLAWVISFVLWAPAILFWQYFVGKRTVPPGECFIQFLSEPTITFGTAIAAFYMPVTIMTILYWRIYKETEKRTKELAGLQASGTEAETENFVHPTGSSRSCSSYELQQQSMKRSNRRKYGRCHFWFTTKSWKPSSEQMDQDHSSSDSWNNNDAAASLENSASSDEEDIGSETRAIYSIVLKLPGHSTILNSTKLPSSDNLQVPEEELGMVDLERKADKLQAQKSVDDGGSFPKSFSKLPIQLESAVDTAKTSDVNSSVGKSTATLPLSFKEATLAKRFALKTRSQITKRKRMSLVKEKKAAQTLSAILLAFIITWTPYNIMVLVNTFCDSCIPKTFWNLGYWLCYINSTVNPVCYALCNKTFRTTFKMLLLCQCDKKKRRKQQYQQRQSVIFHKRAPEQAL

Compound	IC50 [1] [nM]	IC50 [2] [nM]
COc1cc(OCC(=O)OCCCc2cccc(C3(C(=O)O[C@H]4CN5CCC4CC5)CCCCC3)c2)c(Cl)cc1CNC[C@H](O)c1ccc(O)c2[nH]c(=O)ccc12 [Example 10, (3R)-1-azabicyclo[2.2.2]oct-3-yl 1-{3-[3-({[2-chloro-4-({[(2R)-2-hydroxy-2-(8-hydroxy-2-oxo-1,2-dihydroquinolin-5-yl)ethyl]amino}methyl)-5-methoxyphenoxy]acetyl}oxy)propyl]phenyl}cyclohexanecarboxylate]	0.88	7.3
COc1cc(OCC(=O)N(C)CCCc2cccc(C3(C(=O)O[C@H]4CN5CCC4CC5)CCCCC3)c2)c(Cl)cc1CNC[C@H](O)c1ccc(O)c2[nH]c(=O)ccc12 [Example 4, (3R)-1-azabicyclo[2.2.2]oct-3-yl 1-(3-{3-[{[2-chloro-4-({[(2R)-2-hydroxy-2-(8-hydroxy-2-oxo-1,2-dihydroquinolin-5-yl)ethyl]amino}methyl)-5-methoxyphenoxy]acetyl}(methyl)amino]propyl}phenyl)cyclohexanecarboxylate]	0.74	6.6
COc1cc(C(=O)OCCCc2cccc(C3(C(=O)O[C@H]4CN5CCC4CC5)CCCCC3)c2)c(Cl)cc1CNC[C@H](O)c1ccc(O)c2[nH]c(=O)ccc12 [Example 13, 3-[3-(1-{[(3R)-1-azabicyclo[2.2.2]oct-3-yloxy]carbonyl}cyclohexyl)phenyl]propyl 2-chloro-4-({[(2R)-2-hydroxy-2-(8-hydroxy-2-oxo-1,2-dihydroquinolin-5-yl)ethyl]amino}methyl)-5-methoxybenzoate]	0.62	4.4
COc1cc(C(=O)N(C)CCCc2cccc(C3(C(=O)O[C@H]4CN5CCC4CC5)CCCCC3)c2)c(Cl)cc1CNC[C@H](O)c1ccc(O)c2[nH]c(=O)ccc12 [Example 12, (3R)-1-azabicyclo[2.2.2]oct-3-yl 1-(3-{3-[[2-chloro-4-({[(2R)-2-hydroxy-2-(8-hydroxy-2-oxo-1,2-dihydroquinolin-5-yl)ethyl]amino}methyl)-5-methoxybenzoyl](methyl)amino]propyl}phenyl)cyclohexanecarboxylate]	2.1	10
(3R)-1-azabicyclo[2.2.2]oct-3-yl 1-(3-{4-[{[2-chloro-4-({[2-hydroxy-2-(8-hydroxy-2-oxo-1,2-dihydroquinolin-5-yl)ethyl]amino}methyl)-5-methoxyphenoxy]acetyl}(methyl)amino]butyl}phenyl)cyclohexanecarboxylate [Example 26]	0.53	3
COc1cc(C(=O)NCCCc2cccc(C3(C(=O)O[C@H]4CN5CCC4CC5)CCCCC3)c2)c(Cl)cc1CNC[C@H](O)c1ccc(O)c2[nH]c(=O)ccc12 [Example 20, (3R)-1-azabicyclo[2.2.2]oct-3-yl 1-[3-(3-{[2-chloro-4-({[(2R)-2-hydroxy-2-(8-hydroxy-2-oxo-1,2-dihydroquinolin-5-yl)ethyl]amino}methyl)-5-methoxybenzoyl]amino}propyl)phenyl]cyclohexanecarboxylate]	0.14	3.8
COc1cc(NC(=O)CCCc2ccc(C3(C(=O)O[C@H]4CN5CCC4CC5)CCCCC3)cc2)c(Cl)cc1CNC[C@H](O)c1ccc(O)c2[nH]c(=O)ccc12 [Example 31, (3R)-1-azabicyclo[2.2.2]oct-3-yl 1-[4-(4-{[2-chloro-4-({[(2R)-2-hydroxy-2-(8-hydroxy-2-oxo-1,2-dihydroquinolin-5-yl)ethyl]amino}methyl)-5-methoxyphenyl]amino}-4-oxobutyl)phenyl]cyclohexanecarboxylate]	0.41	4
COc1cc(NC(=O)CCCc2cccc(C3(C(=O)OCC4CCN(C)CC4)CCCCC3)c2)c(Cl)cc1CNC[C@H](O)c1ccc(O)c2[nH]c(=O)ccc12 [Example 29, (1-methylpiperidin-4-yl)methyl 1-[3-(4-{[2-chloro-4-({[(2R)-2-hydroxy-2-(8-hydroxy-2-oxo-1,2-dihydroquinolin-5-yl)ethyl]amino}methyl)-5-methoxyphenyl]amino}-4-oxobutyl)phenyl]cyclohexanecarboxylate]	0.57	2.2
COc1cc(C(=O)NCCCCc2cccc(C3(C(=O)O[C@H]4CN5CCC4CC5)CCCCC3)c2)c(Cl)cc1CNC[C@H](O)c1ccc(O)c2[nH]c(=O)ccc12 [Example 9, (3R)-1-azabicyclo[2.2.2]oct-3-yl 1-[3-(4-{[2-chloro-4-({[(2R)-2-hydroxy-2-(8-hydroxy-2-oxo-1,2-dihydroquinolin-5-yl)ethyl]amino}methyl)-5-methoxybenzoyl]amino}butyl)phenyl]cyclohexanecarboxylate]	0.95	3.5
O=C(CCCc1cccc(C2(C(=O)O[C@H]3CN4CCC3CC4)CCCCC2)c1)Nc1ccc(CNC[C@H](O)c2ccc(O)c3[nH]c(=O)ccc23)nc1 [Example 11, (3R)-1-azabicyclo[2.2.2]oct-3-yl 1-[3-(4-{[6-({[(2R)-2-hydroxy-2-(8-hydroxy-2-oxo-1,2-dihydroquinolin-5-yl)ethyl]amino}methyl)pyridin-3-yl]amino}-4-oxobutyl)phenyl]cyclohexanecarboxylate]	0.49	23
O=C(CCCc1cccc(C2(C(=O)O[C@H]3CN4CCC3CC4)CCCCC2)c1)N[C@H]1CC[C@H](CNC[C@H](O)c2ccc(O)c3[nH]c(=O)ccc23)CC1 [Example 3, (3R)-1-azabicyclo[2.2.2]oct-3-yl 1-[3-(4-{[trans-4-({[(2R)-2-hydroxy-2-(8-hydroxy-2-oxo-1,2-dihydroquinolin-5-yl)ethyl]amino}methyl)cyclohexyl]amino}-4-oxobutyl)phenyl]cyclohexanecarboxylate]	1.7	4.2
COc1cc(NCC(=O)NCCCc2cccc(C3(C(=O)O[C@H]4CN5CCC4CC5)CCCCC3)c2)c(Cl)cc1CNC[C@H](O)c1ccc(O)c2[nH]c(=O)ccc12 [Example 30, (3R)-1-azabicyclo[2.2.2]oct-3-yl 1-{3-[3-({N-[2-chloro-4-({[(2R)-2-hydroxy-2-(8-hydroxy-2-oxo-1,2-dihydroquinolin-5-yl)ethyl]amino}methyl)-5-methoxyphenyl]glycyl}amino)propyl]phenyl}cyclohexanecarboxylate]	1.5	13
COc1cc(C(=O)OCCCCc2cccc(C3(C(=O)O[C@H]4CN5CCC4CC5)CCCCC3)c2)c(Cl)cc1CNC[C@H](O)c1ccc(O)c2[nH]c(=O)ccc12 [Example 22, 4-[3-(1-{[(3R)-1-azabicyclo[2.2.2]oct-3-yloxy]carbonyl}cyclohexyl)phenyl]butyl 2-chloro-4-({[(2R)-2-hydroxy-2-(8-hydroxy-2-oxo-1,2-dihydroquinolin-5-yl)ethyl]amino}methyl)-5-methoxybenzoate]	0.29	7.8
COc1cc(OCC(=O)NCCCCc2cccc(C3(C(=O)O[C@H]4CN5CCC4CC5)CCCCC3)c2)c(Cl)cc1CNCC(O)c1ccc(O)c2[nH]c(=O)ccc12 (stereo partly drawn) [Example 24, (3R)-1-azabicyclo[2.2.2]oct-3-yl 1-{3-[4-({[2-chloro-4-({[2-hydroxy-2-(8-hydroxy-2-oxo-1,2-dihydroquinolin-5-yl)ethyl]amino}methyl)-5-methoxyphenoxy]acetyl}amino)butyl]phenyl}cyclohexanecarboxylate]	0.33	1.9
COc1cc(NC(=O)CCCc2cccc(C3(C(=O)O[C@H]4CN5CCC4CC5)CCCCC3)c2)c(Cl)cc1CNC[C@H](O)c1ccc(O)c2[nH]c(=O)ccc12 [Example 2, (3R)-1-azabicyclo[2.2.2]oct-3-yl 1-[3-(4-{[2-chloro-4-({[(2R)-2-hydroxy-2-(8-hydroxy-2-oxo-1,2-dihydroquinolin-5-yl)ethyl]amino}methyl)-5-methoxyphenyl]amino}-4-oxobutyl)phenyl]cyclohexanecarboxylate]	0.22	3
O=C1c2ccc(CNC[C@H](O)c3ccc(O)c4[nH]c(=O)ccc34)cc2CN1CCCCc1cccc(C2(C(=O)O[C@H]3CN4CCC3CC4)CCCCC2)c1 [Example 23, (3R)-1-azabicyclo[2.2.2]oct-3-yl 1-(3-{4-[5-({[(2R)-2-hydroxy-2-(8-hydroxy-2-oxo-1,2-dihydroquinolin-5-yl)ethyl]amino}methyl)-1-oxo-1,3-dihydro-2H-isoindol-2-yl]butyl}phenyl)cyclohexanecarboxylate]	0.61	26
